In publication PMC4718804 (eLife, 2015):
Like-named read-outs stand apart in the source and are kept apart here.

Key:
NTD of recombinant NPC1 = conditions: cited from earlier work
ER membranes = format: biochemical
[1] = tested on: cholesterol egress from lysosomes; conditions: cited from earlier work
NPC1 = NPC1 (Cricetulus griseus, UniProt Q9JLG3); format: binding, hamster
Ebola virus [2] = conditions: cited from earlier work
Ebola virus [3] = format: cell-based
[4] = tested on: cholesterol esterification stimulated by 25-hydroxycholesterol; format: cell-based
[5] = tested on: lysosomal degradation of 125I-LDL in CHO-7 cells; format: cell-based, hamster
wild-type human NPC1 = wild-type human NPC1 (Homo sapiens, UniProt O15118); format: binding
[6] = tested on: transfer of LDL-derived cholesterol from lysosomes to ER in CHO-7 cells; format: cell-based, hamster
[7] = tested on: SREBP-2 cleavage in CHO-7 cells; format: cell-based, hamster
[8] = tested on: TR-4139 cells (CHO-7 cells stably expressing excess human NPC1); format: cell-based, hamster
NPC1L1 = NPC1L1 (Homo sapiens, UniProt Q9UHC9); format: binding
purified NPC1 = purified NPC1 (Homo sapiens, UniProt O15118); format: binding
[9] = read-out: Inhibitory constant (Ki): concentration inhibiting incorporation of [14C]oleate into cholesteryl [14C]oleate by 50%
[10] = read-out: Ki for inhibition of esterification of LDL-derived cholesterol

Sequence of NPC1 (Q9JLG3 23-1277 limits assumed): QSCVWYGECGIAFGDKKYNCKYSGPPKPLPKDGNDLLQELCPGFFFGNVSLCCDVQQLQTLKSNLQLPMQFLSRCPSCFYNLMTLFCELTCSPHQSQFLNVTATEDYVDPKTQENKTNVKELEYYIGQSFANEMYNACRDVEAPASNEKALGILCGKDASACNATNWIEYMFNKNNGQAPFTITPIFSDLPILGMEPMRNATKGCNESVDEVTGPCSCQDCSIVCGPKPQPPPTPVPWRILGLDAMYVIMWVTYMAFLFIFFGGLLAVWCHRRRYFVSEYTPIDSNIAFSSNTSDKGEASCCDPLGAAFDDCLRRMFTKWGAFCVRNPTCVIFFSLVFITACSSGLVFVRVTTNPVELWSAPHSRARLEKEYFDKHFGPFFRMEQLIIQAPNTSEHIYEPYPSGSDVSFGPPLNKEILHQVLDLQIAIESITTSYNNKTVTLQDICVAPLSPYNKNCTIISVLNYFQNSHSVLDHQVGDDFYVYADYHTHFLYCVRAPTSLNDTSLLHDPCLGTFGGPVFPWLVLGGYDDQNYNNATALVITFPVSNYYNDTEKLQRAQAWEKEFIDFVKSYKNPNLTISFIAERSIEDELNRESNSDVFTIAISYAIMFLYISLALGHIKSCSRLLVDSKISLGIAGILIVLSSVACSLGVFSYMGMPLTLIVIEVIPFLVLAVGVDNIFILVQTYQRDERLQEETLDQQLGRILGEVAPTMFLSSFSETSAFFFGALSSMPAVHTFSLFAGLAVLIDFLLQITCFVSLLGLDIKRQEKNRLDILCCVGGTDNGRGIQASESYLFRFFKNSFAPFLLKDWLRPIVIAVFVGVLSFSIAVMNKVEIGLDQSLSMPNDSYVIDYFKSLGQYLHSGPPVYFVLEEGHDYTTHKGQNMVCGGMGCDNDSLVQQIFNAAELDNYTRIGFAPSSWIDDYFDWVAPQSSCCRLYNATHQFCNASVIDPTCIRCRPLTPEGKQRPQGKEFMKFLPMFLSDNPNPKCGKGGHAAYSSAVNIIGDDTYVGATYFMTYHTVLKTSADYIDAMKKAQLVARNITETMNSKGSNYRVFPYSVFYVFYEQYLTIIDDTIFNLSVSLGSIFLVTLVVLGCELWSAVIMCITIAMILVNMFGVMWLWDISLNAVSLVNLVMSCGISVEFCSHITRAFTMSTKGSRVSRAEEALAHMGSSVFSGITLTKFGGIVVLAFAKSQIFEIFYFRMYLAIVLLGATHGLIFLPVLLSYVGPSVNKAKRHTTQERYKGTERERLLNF
Sequence of wild-type human NPC1 (O15118 23-1278): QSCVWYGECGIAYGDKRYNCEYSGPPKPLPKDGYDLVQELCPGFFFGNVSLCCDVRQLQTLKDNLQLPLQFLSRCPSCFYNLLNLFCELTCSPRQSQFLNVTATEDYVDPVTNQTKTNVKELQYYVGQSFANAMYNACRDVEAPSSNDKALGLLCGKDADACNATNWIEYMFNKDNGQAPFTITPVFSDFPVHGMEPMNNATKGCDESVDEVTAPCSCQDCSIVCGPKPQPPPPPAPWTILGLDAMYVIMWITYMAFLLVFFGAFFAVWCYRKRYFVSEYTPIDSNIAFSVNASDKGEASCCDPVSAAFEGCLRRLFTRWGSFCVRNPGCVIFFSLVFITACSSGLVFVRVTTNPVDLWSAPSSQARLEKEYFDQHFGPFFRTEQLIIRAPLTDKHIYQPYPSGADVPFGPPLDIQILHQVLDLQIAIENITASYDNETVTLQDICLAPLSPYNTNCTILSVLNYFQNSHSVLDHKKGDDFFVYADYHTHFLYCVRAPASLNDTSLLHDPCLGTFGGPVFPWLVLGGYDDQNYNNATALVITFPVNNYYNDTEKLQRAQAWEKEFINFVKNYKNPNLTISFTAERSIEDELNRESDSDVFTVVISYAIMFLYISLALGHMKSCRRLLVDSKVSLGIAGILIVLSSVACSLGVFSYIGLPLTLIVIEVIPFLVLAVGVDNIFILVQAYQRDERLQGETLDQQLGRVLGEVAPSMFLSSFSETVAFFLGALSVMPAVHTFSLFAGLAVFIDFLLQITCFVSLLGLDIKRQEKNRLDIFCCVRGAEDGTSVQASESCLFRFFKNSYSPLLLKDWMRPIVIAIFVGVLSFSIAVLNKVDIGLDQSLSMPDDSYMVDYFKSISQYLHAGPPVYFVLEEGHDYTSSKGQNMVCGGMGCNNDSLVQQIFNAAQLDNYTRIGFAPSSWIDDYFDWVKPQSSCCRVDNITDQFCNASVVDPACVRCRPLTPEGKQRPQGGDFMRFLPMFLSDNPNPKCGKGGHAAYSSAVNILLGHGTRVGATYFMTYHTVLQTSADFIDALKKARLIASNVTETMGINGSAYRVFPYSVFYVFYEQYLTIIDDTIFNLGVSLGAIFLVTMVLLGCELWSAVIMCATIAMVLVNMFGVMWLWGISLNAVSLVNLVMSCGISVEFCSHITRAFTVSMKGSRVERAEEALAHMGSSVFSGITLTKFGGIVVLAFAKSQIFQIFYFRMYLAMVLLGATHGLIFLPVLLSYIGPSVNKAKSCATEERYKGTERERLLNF
Sequence of NPC1L1 (Q9UHC9 22-1359): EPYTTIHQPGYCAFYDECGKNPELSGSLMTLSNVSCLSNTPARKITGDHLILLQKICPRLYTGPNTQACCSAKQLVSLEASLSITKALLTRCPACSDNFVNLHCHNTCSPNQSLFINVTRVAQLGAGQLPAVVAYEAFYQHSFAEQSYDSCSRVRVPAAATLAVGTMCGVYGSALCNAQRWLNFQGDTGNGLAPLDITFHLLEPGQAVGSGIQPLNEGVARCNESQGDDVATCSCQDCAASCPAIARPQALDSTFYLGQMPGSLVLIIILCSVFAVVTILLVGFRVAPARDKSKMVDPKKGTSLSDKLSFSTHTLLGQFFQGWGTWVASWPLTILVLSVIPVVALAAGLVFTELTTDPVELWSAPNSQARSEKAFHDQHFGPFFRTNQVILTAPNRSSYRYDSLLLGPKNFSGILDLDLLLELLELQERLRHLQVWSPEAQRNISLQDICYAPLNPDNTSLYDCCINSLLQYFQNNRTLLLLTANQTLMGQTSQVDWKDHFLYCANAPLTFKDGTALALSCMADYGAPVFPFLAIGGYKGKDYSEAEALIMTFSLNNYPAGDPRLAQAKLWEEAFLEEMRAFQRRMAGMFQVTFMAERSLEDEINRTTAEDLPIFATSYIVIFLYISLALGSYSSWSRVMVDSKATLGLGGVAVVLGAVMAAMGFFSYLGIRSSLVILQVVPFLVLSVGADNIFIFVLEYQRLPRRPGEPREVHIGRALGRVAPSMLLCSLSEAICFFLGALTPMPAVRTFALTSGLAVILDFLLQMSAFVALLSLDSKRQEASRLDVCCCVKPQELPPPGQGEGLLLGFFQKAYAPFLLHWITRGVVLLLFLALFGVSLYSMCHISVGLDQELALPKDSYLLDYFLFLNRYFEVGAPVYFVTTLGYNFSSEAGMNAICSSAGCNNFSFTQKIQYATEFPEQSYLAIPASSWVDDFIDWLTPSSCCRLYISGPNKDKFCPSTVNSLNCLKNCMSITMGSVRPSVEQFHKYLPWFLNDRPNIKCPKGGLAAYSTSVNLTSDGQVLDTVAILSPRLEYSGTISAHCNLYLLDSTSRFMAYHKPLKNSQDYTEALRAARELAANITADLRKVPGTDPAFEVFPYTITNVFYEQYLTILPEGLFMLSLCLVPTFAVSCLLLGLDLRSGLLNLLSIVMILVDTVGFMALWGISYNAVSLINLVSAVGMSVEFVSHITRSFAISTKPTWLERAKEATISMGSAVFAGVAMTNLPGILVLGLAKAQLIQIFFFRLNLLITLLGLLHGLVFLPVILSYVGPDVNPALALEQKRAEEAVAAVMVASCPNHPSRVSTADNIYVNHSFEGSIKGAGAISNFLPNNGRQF
Sequence of purified NPC1 (O15118 23-1278): as the sequence (O15118 23-1278) above

## CCN(CC)CCOC1CCC2(C)C(=CCC3C4CCC(=O)C4(C)CCC32)C1 (stereo not drawn) [U18666A, 3-beta-[2-(diethylamino)ethoxy]androst-5-en-17-one, reference compound]
NTD of recombinant NPC1
  effect on binding of [3H]25-hydroxycholesterol to the NTD of recombinant NPC1: does not block binding
ER membranes
  effect on cholesteryl [14C]oleate formation when cholesterol is added to ER membranes in vitro: does not inhibit
physchem
  pKa: 9.41
[1]
  fold more potent than imipramine: more than 100 fold
NPC1
  competition of U-X crosslinking to NPC1, immunoprecipitation: blocked
  competition of U-X crosslinking to the 190-kDa protein (NPC1), in-gel fluorescence: disappeared
Ebola virus [2]
  concentrations of U18666A required to inhibit Ebola virus infection: 3 to 12 µM
Ebola virus [3]
  fold higher concentration required for inhibition of Ebola than for inhibition of cholesterol export: 100 fold
[4]
  effect on cholesterol esterification stimulated by 25-hydroxycholesterol: did not block
[5]
  effect on degradation of 125I-LDL (125I-monoiodotyrosine released into medium): did not inhibit degradation
wild-type human NPC1
  competition of U-X crosslinking to transfected wild-type NPC1: competed
[6]
  concentration at which transport of LDL-derived cholesterol from lysosomes to ER is inhibited (as low as): 0.03 µM
  effect on lysosomal exit of cholesterol (incorporation of [14C]oleate into cholesteryl [14C]oleate): inhibited the lysosomal exit of cholesterol
[6]; [9]
  Ki: 30 nM
[6]; [10]
  Ki: 20 nM
[7]
  effect on the FCS-induced reduction of nuclear SREBP-2: prevented this reduction
[8]
  rise of the threshold for U18666A inhibition by overexpression of NPC1: more than 100 fold
[8]; [10]
  Ki: 2700 nM

## C#CCOc1ccc(C(=O)c2ccc(C(=O)OCCN(CC)CCOC3CCC4(C)C(=CCC5C6CCC(=O)C6(C)CCC54)C3)cc2)cc1 (stereo not drawn) [U-X]
NPC1L1
  crosslinking to NPC1L1: did not crosslink
NPC1
  crosslinking to NPC1: crosslinks
[5]
  effect on degradation of 125I-LDL (125I-monoiodotyrosine released into medium): did not inhibit degradation
wild-type human NPC1
  fluorescent NPC1 after UV crosslinking of U-X: detected
Purified NPC1
  crosslinking to purified NPC1: unable to crosslink
[6]
  effect on lysosomal exit of cholesterol (incorporation of [14C]oleate into cholesteryl [14C]oleate): inhibited the lysosomal exit of cholesterol
[6]; [9]
  Ki: 60 nM
[7]
  effect on the FCS-induced reduction of nuclear SREBP-2: blocked

## CCN(CC)CCCC(C)Nc1ccnc2cc(Cl)ccc12 (stereo not drawn) [chloroquine, reference compound]
[5]
  effect on degradation of 125I-LDL (125I-monoiodotyrosine released into medium): blocked the degradation
[6]
  effect on release of LDL-derived cholesterol (cholesterol esterification): blocked

## CCC(CC)CCOC1CCC2(C)C(=CCC3C2CCC2(C)C3CCC2N(C)C)C1 (stereo not drawn) [compound A]
physchem
  pKa: 10.2
NPC1
  competition of U-X crosslinking to NPC1, immunoprecipitation: not inhibited
  competition of U-X crosslinking to the 190-kDa protein (NPC1), in-gel fluorescence: not
[6]
  fold less active than U18666A in the cholesterol esterification assay: ~100 fold
[6]; [9]
  Ki: 4500 nM
[7]
  effect on the FCS-induced reduction of nuclear SREBP-2: no activity

## CCCN(CCOC1CCC2(C)C(=CCC3C4CCC(=O)C4(C)CCC32)C1)Cc1cn(-c2cccnc2)nn1 (stereo not drawn) [compound B]
NPC1
  competition of U-X crosslinking to NPC1, immunoprecipitation: blocked
[6]; [9]
  Ki: 10 nM

## CCCN(CCOC1CCC2(C)C(=CCC3C4CCC(=O)C4(C)CCC32)C1)Cc1cn(CCCCCCOC(=O)CCCCC2SCC3NC(=O)NC32)nn1 (stereo not drawn) [compound C]
NPC1
  competition of U-X crosslinking to NPC1, immunoprecipitation: blocked
[6]; [9]
  Ki: 20 nM

## CCC(CC)CCOC1CCC2(C)C(=CCC3C4CCC(=O)C4(C)CCC32)C1 (stereo not drawn) [compound D]
NPC1
  competition of U-X crosslinking to NPC1, immunoprecipitation: not inhibited
[6]; [9]
  Ki: 4700 nM

## CCN(CC)CCOC1CCCCC1 [compound E]
NPC1
  competition of U-X crosslinking to NPC1, immunoprecipitation: not inhibited
[6]; [9]
  Ki: > 10000 nM
